# Assay results reported in US5522922A, “Aqueous ink composition” (priority 1993, dated 1996).
# Test: LD50, oral dosing of mice or rabbits
# Conditions: in vivo
# Text: LD50 means a lethal dose (mg/kg) necessary to kill more than half of examined mice or rabbits when the mice or rabbits are orally dosed with a certain concentration. Safety improves as LD50 increases.
# As is clear from Table 11, an aqueous ink composition of the present invention is 5 to 8 times more safe than a conventional aqueous ink composition. Therefore, to maintain this standard of safety, triethanolamine used in the present invention is limited to triethanolamine meeting the standards described in the present specification and the Japanese Standards of Cosmetic Ingredient (Yakuji Nippo, Ltd., second edition).
smiles,measurement,value
"CCN(CC)N=O [Diethyl nitrosamine, diethyl nitrosamine]",LD50,15 mg/kg
